For series [1] the following is noted: 298.15 K; 101.33 kPa; Liquid.
The nature of series [2]: refractive index (Na D-line) (dimensionless). As to conditions: 293.15 K; 101.33 kPa; Liquid; Standard Abbe refractometry.

± gives the expanded uncertainty stated by the source.

As usually defined, the mass density is mass per unit of volume. The refractive index is the speed of light in vacuum divided by its phase velocity in the sample.

As for `Cc1ccccc1C` [1,2-dimethylbenzene], in series [1], the mass density is reported as 875.73 ± 0.44 kg/m3. Also, the refractive index in series [2] was 1.5057 ± 0.0007.

As to `Cc1cccc(C)c1` [1,3-dimethylbenzene], in series [1], the mass density is 859.83 ± 0.99 kg/m3. Moreover, the refractive index in series [2] was 1.4973 ± 0.0008.

Turning to `Cc1ccc(C)cc1` [1,4-dimethylbenzene], the mass density in series [1] is given as 856.58 ± 0.63 kg/m3. Also, the refractive index in series [2] is on record as 1.49577 ± 0.00075.

Turning to `C[S+](C)[O-]` [dimethyl sulfoxide], the mass density in series [1] is reported as 1095.62 ± 0.39 kg/m3. The refractive index in series [2] turned out to be 1.4785 ± 0.0007.
